Reference: patent publication US7008545B2, “Synergistic biocidal mixtures” (Hercules Incorporated, priority 2002, dated 2006)

Tests used:
[1] = tested on: artificial bacterial consortium; assay: Dose protocol, bacterial growth inhibition (O.D. 650 nm) in synthetic white water, concurrent fed strategy; assay type: cell-based; conditions: for ppm DGH / ppm Glut / ppm Dithiol / ppm MBT / ppm BIT / ppm DCOI / ppm DBNPA / ppm BNPD / ppm DBDCB / ppm DIDAC: alone or with AmBr; for ppm Sulfone: concentration of Sulfone at 50% inhibition
Protocol: A measured amount of ammonium bromide activated with sodium hypochlorite and a measured amount of a non-oxidizing biocide were added to a suspension of bacteria. The effectiveness of the combination of the biocides is determined by measuring growth or lack thereof after an appropriate incubation time.
(§1) The efficacy of the active materials and blends was determined using a dose protocol. The actives were evaluated in synthetic white water with pH values of 5.5 and 8.0. The materials were tested against an artificial bacterial consortium containing approximately equal numbers of six bacterial strains. Although the test strains are representative of organisms present in paper mill systems, the effect is not limited to these bacteria. Two of the strains were Klebsiella pneumonia (ATCC 13883) and Pseudomonas aeruginosa (ATCC 15442). The other four strains were isolated from papermill systems and have been identified as Curtobacterium flaccumfaciens, Burkholderia cepacia, Bacillus maroccanus, and Pseudomonas glathei. Each strain was inoculated at 37° C. overnight, then suspended in sterile saline. Equal volumes of each strain were then combined to prepare the consortium. The bacterial consortium was distributed into the wells of a microtiter plate in the presence and absence of various concentrations of the active materials. The microtiter plates were incubated at 37° C. Optical density (O.D.) readings at 650 nm were taken initially (t0) and after time 4 hours (t4) of incubation.
(§2) The raw data was converted to “bacterial growth inhibition precentages” according to the following formula: % Inhibition=[(a−b)÷a]*100 where: • a=(O.D. of control at tn)−(O.D. of control at t0) • b=(O.D. of treatment at tn)−(O.D. of treatment at t0)
(§3) The inhibition values can be plotted versus dosage for each active and the particular blend. […] In the examples (tables) below, the I50 values are expressed as parts per million (ppm) of active material.
(§4) The synergism index (SI) was calculate by the equations described by F. C. Kull, P. C. Eisman, H. D. Sylwestrowicz, and R. L. Mayer (1961), Applied Microbiology 9, 538–541. The values are based on the amount needed to achieve a specified end point. The end point selected for these studies was 50% inhibition of bacterial growth. Synergy Index (SI)=(QA÷Qa)+(QB÷Qb) where: • QA=quantity of compound A in mixture, producing the end point • Qa=quantity of compound A, acting alone, producing the end point • QB=quantitiy of compound B in mixture, producing the end point • Qb=quantity of compound B, acting alone, producing the end point
(§5) If SI is less than 1, synergism exists; if SI is greater than 1, antagonism exists; if SI is equal to 1, an additive effect exists.

[2] = tested on: artificial bacterial consortium; assay: Dose protocol, bacterial growth inhibition (O.D. 650 nm) in synthetic white water, sequential fed strategy, one hour delay between the additions; assay type: cell-based; conditions: for ppm MBT: concentration of MBT at 50% inhibition; for ppm DBNPA: alone or with AmBr; for ppm Sulfone: concentration of Sulfone at 50% inhibition
Protocol: A measured amount of ammonium bromide activated with sodium hypochlorite was added to a suspension of bacteria and the cell suspension incubated for a selected time after which a measured amount of a selected non-oxidizing biocide was then added to the suspension. The effectiveness of the combination of biocides was determined by measuring growth or lack thereof after an additional appropriate incubation time.
A measured amount of a selected non-oxidizing biocide was added to a suspension of bacteria and the cell suspension was incubated for a selected time after which a measured amount of ammonium bromide activated with sodium hypochlorite was then added to the suspension. The effectiveness of the combination of biocides was determined by measuring growth or lack thereof after an additional appropriate incubation time.
as §1, §2, §3, §4, §5

[3] = pH 5.5, amount giving 50% inhibition
[4] = pH 8.0, amount giving 50% inhibition
[5] = pH 5.5, alone or with AmBr at the stated ratio
[6] = pH 8.0, alone or with AmBr at the stated ratio
[7] = DBNPA & AmBr, pH 5.5, end point 50% inhibition
[8] = DBNPA & AmBr, pH 8.0, end point 50% inhibition
[9] = Sulfone & AmBr, at 50% inhibition, pH 5.5
[10] = Sulfone & AmBr, at 50% inhibition, pH 8.0

Question: With `CCCCCCCCCCCCNC(=N)N.Cl` [DGH, N-Dodecylguanidine hydrochloride] as the compound, how does the “Synergy Index” value ([1]; DGH & AmBr, pH 5.5, end point 50% inhibition) read?
Answer: The value was 1.00.

Question: And the “Synergy Index” value ([1]; DGH & AmBr, pH 8.0, end point 50% inhibition)?
Answer: The value was 1.00.

Question: And the “ppm DGH” value [1, 3]?
Answer: Its value is 3.11 ppm.

Question: And the “ppm DGH” value [1, 4]?
Answer: The value was 1.84 ppm.

Question: With `O=CCCCC=O` [Glut, Glutaraldehyde] as the compound, how does the “Synergy Index” value ([1]; Glut & AmBr, pH 5.5, end point 50% inhibition) read?
Answer: The value was 1.00.

Question: And the “Synergy Index” value ([1]; Glut & AmBr, pH 8.0, end point 50% inhibition)?
Answer: The value was 1.00.

Question: And the “ppm Glut” value [1, 3]?
Answer: Its value is 2.06 ppm.

Question: What about the “ppm Glut” value [1, 4] of the same compound?
Answer: Its value is 6.68 ppm.

Question: Which “Synergy Index” value ([1]; Dithiol & AmBr, pH 5.5, end point 50% inhibition) does the source give for `O=c1ssc(Cl)c1Cl` [Dithiol, 4,5-Dichloro-1,2-dithiol-3-one] here?
Answer: Its value is 1.00.

Question: And the “Synergy Index” value ([1]; Dithiol & AmBr, pH 8.0, end point 50% inhibition)?
Answer: Its value is 1.00.

Question: And the “ppm Dithiol” value [1, 3]?
Answer: Its value is 0.63 ppm.

Question: What about the “ppm Dithiol” value [1, 4] of the same compound?
Answer: Its value is 0.84 ppm.

Question: Which “Synergy Index” value ([2]; MBT & AmBr, at 50% inhibition, pH 5.5) does the source give for `N#CSCSC#N` [MBT, Methylene bisthiocyanate] here?
Answer: The value was 1.00.

Question: And the “Synergy Index” value ([2]; MBTC & AmBr, at 50% inhibition, pH 8.0)?
Answer: Its value is 1.00.

Question: And the “ppm MBT” value [2, 5]?
Answer: The value was 0.38 ppm.

Question: What about the “ppm MBT” value [2, 6] of the same compound?
Answer: Its value is 0.73 ppm.

Question: What about the “Synergy Index” value ([1]; MBT & AmBr, pH 5.5, end point 50% inhibition) of the same compound?
Answer: Its value is 1.00.

Question: And the “Synergy Index” value ([1]; MBT & AmBr, pH 8.0, end point 50% inhibition)?
Answer: Its value is 1.00.

Question: And the “ppm MBT” value [1, 3]?
Answer: The value was 0.36 ppm.

Question: And the “ppm MBT” value [1, 4]?
Answer: The value was 0.71 ppm.

Question: How did the “Synergy Index” value ([1]; BIT & AmBr, pH 5.5, end point 50% inhibition) turn out when `O=c1[nH]sc2ccccc12` [BIT, 1,2-Benzisothiazolin-3-one] was run?
Answer: Its value is 1.00.

Question: What about the “Synergy Index” value ([1]; BIT & AmBr, pH 8.0, end point 50% inhibition) of the same compound?
Answer: The value was 1.00.

Question: And the “ppm BIT” value [1, 3]?
Answer: The value was 1.62 ppm.

Question: What about the “ppm BIT” value [1, 4] of the same compound?
Answer: The value was 3.59 ppm.

Question: With `CCCCCCCCn1sc(Cl)c(Cl)c1=O` [DCOI, 4,5-Dichloro-2-n-octyl-3(2H)-isothiazolinone] as the compound, how does the “Synergy Index” value ([1]; DCOI & AmBr, pH 5.5, end point 50% inhibition) read?
Answer: The value was 1.00.

Question: And the “Synergy Index” value ([1]; DCOI & AmBr, pH 8.0, end point 50% inhibition)?
Answer: The value was 1.00.

Question: And the “ppm DCOI” value [1, 3]?
Answer: The value was 0.39 ppm.

Question: And the “ppm DCOI” value [1, 4]?
Answer: The value was 1.49 ppm.

Question: How did the “Synergy Index” value [2, 7] turn out when `N#CC(Br)(Br)C(N)=O` [DBNPA, 2,2-Dibromo-3-nitrilopropionamide] was run?
Answer: Its value is 1.00.

Question: And the “Synergy Index” value [2, 8]?
Answer: Its value is 1.00.

Question: And the “ppm DBNPA” value [2, 3]?
Answer: Its value is 3.09 ppm.

Question: What about the “ppm DBNPA” value [2, 4] of the same compound?
Answer: The value was 2.33 ppm.

Question: And the “Synergy Index” value [1, 7]?
Answer: The value was 1.00.

Question: What about the “Synergy Index” value [1, 8] of the same compound?
Answer: The value was 1.00.

Question: What about the “ppm DBNPA” value [1, 3] of the same compound?
Answer: Its value is 3.08 ppm.

Question: And the “ppm DBNPA” value [1, 4]?
Answer: The value was 2.86 ppm.

Question: Which “Synergy Index” value ([1]; BNPD & AmBr, pH 5.5, end point 50% inhibition) does the source give for `O=[N+]([O-])C(Br)(CO)CO` [BNPD, 2-Bromo-2-nitropropane-1,3-diol] here?
Answer: The value was 1.00.

Question: And the “Synergy Index” value ([1]; BNPD & AmBr, pH 8.0, end point 50% inhibition)?
Answer: The value was 1.00.

Question: And the “ppm BNPD” value [1, 3]?
Answer: The value was 1.16 ppm.

Question: What about the “ppm BNPD” value [1, 4] of the same compound?
Answer: The value was 1.34 ppm.

Question: Which “Synergy Index” value ([1]; DBDCB & AmBr, pH 5.5, end point 50% inhibition) does the source give for `N#CCCC(Br)(C#N)CBr` (centres unmarked) [DBDCB, 1,2-Dibromo-2,4-dicyanobutane] here?
Answer: The value was 1.00.

Question: What about the “Synergy Index” value ([1]; DBDCB & AmBr, pH 8.0, end point 50% inhibition) of the same compound?
Answer: The value was 1.00.

Question: And the “ppm DBDCB” value [1, 3]?
Answer: Its value is 2.70 ppm.

Question: What about the “ppm DBDCB” value [1, 4] of the same compound?
Answer: The value was 1.85 ppm.

Question: For `O=S(=O)(C(Cl)(Cl)Cl)C(Cl)(Cl)Cl` [Sulfone, bis(trichloromethyl)sulfone], which “Synergy Index” value [2, 9] is on record?
Answer: Its value is 1.00.

Question: What about the “Synergy Index” value [2, 10] of the same compound?
Answer: Its value is 1.00.

Question: And the “ppm Sulfone” value [2, 5]?
Answer: The value was 4.44 ppm.

Question: And the “ppm Sulfone” value [2, 6]?
Answer: The value was 10.25 ppm.

Question: And the “Synergy Index” value [1, 9]?
Answer: Its value is 1.00.

Question: And the “Synergy Index” value [1, 10]?
Answer: Its value is 1.00.

Question: And the “ppm Sulfone” value [1, 5]?
Answer: Its value is 1.87 ppm.

Question: And the “ppm Sulfone” value [1, 6]?
Answer: Its value is 8.42 ppm.

Question: Which “Synergy Index” value ([1]; DIDAC & AmBr, pH 5.5, end point 50% inhibition) does the source give for `CCCCCCCCCC[N+](C)(C)CCCCCCCCCC.[Cl-]` [DIDAC, Didecyl dimethyl ammonium chloride] here?
Answer: The value was 1.00.

Question: What about the “Synergy Index” value ([1]; DIDAC & AmBr, pH 8.0, end point 50% inhibition) of the same compound?
Answer: Its value is 1.00.

Question: What about the “ppm DIDAC” value [1, 3] of the same compound?
Answer: The value was 1.82 ppm.

Question: What about the “ppm DIDAC” value [1, 4] of the same compound?
Answer: The value was 1.62 ppm.
